Test results published in patent US8129527B2, “Analogs of dehydrophenylahistins and their therapeutic use” (Nereus Pharmacuticals, Inc., priority 2006, dated 2012).

Assays:
[1] = test system: P388 murine leukemia cells; experiment: Cytotoxic effect in P388 cells; type: cell-based
Description: The cytotoxic effects of phenylahistin, dehydrophenylahistin and various derivatives of dehydrophenylahistin were examined in P388 murine leukemia cells, HT-29 human colon cells, and PC-3 prostatic adenocarcinoma cells.

[2] = test system: B16-F10 murine melanoma cells; experiment: B16-F10 Metastatic Murine Melanoma Model; type: in vivo, B6D2F1 mice; details: monotherapy, lung surface metastases day 16
Experimental: (§1) The animals used were: female nude mice (nu/ni) (MDA-231 study) or B6D2F1 (B16-F10 studies) mice between 5 and 6 weeks of age (˜20 g, Harlan); group size was 10 mice per group unless otherwise indicated.
(§2) The cell lines used were: MDA-MB-231 human breast tumor and B16-F10 murine melanoma cells.
(§3) NPI compounds were administered as monotherapy via the intraperitoneal route at the doses indicated for the individual study; for the combination studies the selected reference chemotherapy agents were injected 15-30 min prior to the NPI compound.
Mice received B16-F10 cells (prepared from an in vitro cell culture of B16-F10 cells) by the iv route on Day 0. On Day 1 mice were randomized into treatment and control groups and treatment commenced. Mice were weighed twice weekly, starting on Day 1. All mice are sacrificed on Day 16, the lungs removed, weighed and the surface colonies counted. Results are expressed as mean colonies of treated mice/mean colonies of control mice (T/C)×100%). The metastasis growth inhibition (MGI) is this number subtracted from 100%. Paclitaxel was the standard chemotherapy agent used in this study.
In this model unless otherwise noted for the individual study, the test compounds were administered via the intraperitoneal route on Days 1-5 (qdx5); paclitaxel was administered intravenously on Days 1-5(qdx5).

[3] = test system: MDA-231 human breast tumor; experiment: MDA-231 Human Breast Tumor Orthotopic Xenograft Model (mammary fat pad); type: in vivo, nude mice; details: KPU-2 7.5 mg/kg ip q3dx5 with paclitaxel 16 mg/kg ip qdx5, three weeks
Experimental: as §1, §2, §3
Female nude mice were injected in the mammary fat pad with 2×10^6 MDA-231 cells harvested from in vitro cell culture. When the tumor size reached 5 mm×5 mm (about 14-28 days) the animals were matched into treatment and control groups. The study then proceeded as described for the HT-29 model, using paclitaxel as the standard chemotherapy agent.
In this model unless otherwise noted for the individual study, the test compounds were administered via the intraperitoneal route on Days 1, 4, 8, 11 and 15 (q3dx5); paclitaxel was administered via the intraperitoneal route on Days 1-5 (qdx5).
This model involves the placement of the human tumor tissue into the mouse mammary fat pad, a surrogate of the natural environment. In this manner the possibility of a positive effect due to a specific action on the subcutaneous vascular bed is avoided.

[4] = test system: DU-145 human prostate tumor; experiment: DU-145 Human Prostate Tumor Xenograft Model; type: in vivo, nude mice; details: KPU-2 plus taxotere, treatment Days 20-27
Experimental: When the tumors reached 5 mm×5 mm (at about 13-17 days) the animals were matched into treatment and control groups.
In this model unless otherwise noted for the individual study, test compounds were administered via the intraperitoneal route on Days 1, 3, 5, 8 and 11 (q3dx5); taxotere was administered intravenously on Days 1, 3 and 5 (q2dx3).

c-RAF (human) = c-RAF (human) (Homo sapiens, UniProt P04049); details: ATP 10 μM
Aspergillus fumigatus = experiment: Antifungal susceptibility testing, broth dilution (MIC/MFC); type: cell-based
How it was run: (§4)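 Tested against two isolates per species (one for C. glabrata). After MIC, fungicidal concentration determined by plating 0.1 μl from MIC and each higher concentration.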

Candida albicans = experiment: as above; type: cell-based
How it was run: as §4

Trichophyton rubrum = experiment: as above; type: cell-based; details: Trichophyton species
How it was run: as §4

Candida glabrata = experiment: as above; type: cell-based; details: Nakaseomyces glabratus
How it was run: as §4

[5] = molecular target: panel of 60 different kinases; experiment: Broad kinase screen, primary screen; type: biochemical; details: 10 μM compound, ATP 10 μM, 60 kinases
JNK3 (rat) = JNK3 (rat) (Rattus norvegicus, UniProt P49187); details: ATP 10 μM
[6] = test system: MCF-7/ADR (Taxol Resistant) human breast carcinoma; experiment: Drug resistant cell line pair, cytotoxicity (Example 10B); type: cell-based; details: Homo sapiens, NCI/ADR-RES, read-out: MCF-7/ADR Resistant IC 50 nM
Description: (§5) 3). Human Breast Carcinoma Cell Line Pair: MCF-7 (Taxol Sensitive) and MCF-7/ADR (Taxol Resistant)

[7] = test system: MCF-7 (Taxol Sensitive) human breast carcinoma; experiment: as above; type: cell-based; details: Homo sapiens, MCF7/Taxol, read-out: MCF-7 Sensitive IC50 nM
Description: as §5

[8] = test system: human prostate tumor cells; experiment: Induction of apoptosis, morphological changes; type: cell-based
Description: Apoptosis and its dysregulation play an important role in oncology; the selective induction of the programmed cell death cycle in tumor cells is the goal of many chemotherapeutic drug discovery programs.
The characteristic signs of apoptotic cell death include cell membrane blebbing, disruption of nuclei, cell shrinkage and condensation and finally cell death, very distinctive from necrotic cell death. […] A similar finding was also clear in the treatment of HuVEC cells with KPU-2.

MCF-7 human breast tumor = experiment: MCF-7 Human Breast Tumor Xenograft Model; type: in vivo, nude mice; details: in combination with taxotere
How it was run: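 Female nu/nu mice (~20 g, 5–6 wk) given 21-day estrogen pellets (0.25 mg) s.c. 24 h before s.c. MCF-7 tumor fragment implantation; 9–10 mice/group. Compounds dosed i.p. (qdx5 Days 1–5, or Days 1, 2, 3, 4, 7); taxotere i.v. (Days 1, 3, 5 or 1, 3, 7), given 15–30 min before compound in combinations.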

[9] = test system: A549 human non small cell lung tumor; experiment: A549 Human Lung Tumor Xenograft Model; type: in vivo, nude mice; details: KPU-2 7.5 mg/kg ip qdx5 with taxotere
Experimental: Animals used were (exceptions are indicated for individual studies): female nude mice (nu/nu) between 5 and 6 weeks of age (˜20 g, Harlan); group size was 9-10 mice per group unless otherwise indicated.
Selected novel compounds were administered as monotherapy via the intraperitoneal (i.p.) route at the doses indicated for the individual study; for the combination studies the selected reference chemotherapy agents were injected 15-30 min prior to the compound.
Saline dilutions are used to achieve the injection concentrations used for the reference compounds.
Animals were implanted s.c. by trocar with fragments of A549 tumors harvested from s.c. growing tumors in nude mice hosts. When the tumor size reached 5 mm×5 mm (about 10-17 days) the animals were matched into treatment and control groups.

Chain of JNK3 (rat) (P49187 whole entry): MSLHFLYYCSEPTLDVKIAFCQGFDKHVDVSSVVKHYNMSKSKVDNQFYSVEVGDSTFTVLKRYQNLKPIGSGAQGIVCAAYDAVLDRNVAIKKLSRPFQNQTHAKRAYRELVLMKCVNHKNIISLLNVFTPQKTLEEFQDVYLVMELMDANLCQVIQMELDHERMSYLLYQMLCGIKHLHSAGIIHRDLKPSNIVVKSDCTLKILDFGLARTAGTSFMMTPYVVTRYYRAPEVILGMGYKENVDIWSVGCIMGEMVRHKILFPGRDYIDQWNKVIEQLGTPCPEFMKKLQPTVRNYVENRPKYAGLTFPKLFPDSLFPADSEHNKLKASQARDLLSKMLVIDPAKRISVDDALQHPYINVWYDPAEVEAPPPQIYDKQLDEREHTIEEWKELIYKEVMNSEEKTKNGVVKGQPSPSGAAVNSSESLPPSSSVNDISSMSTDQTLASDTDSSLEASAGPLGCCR
Chain of c-RAF (human) (P04049 whole entry): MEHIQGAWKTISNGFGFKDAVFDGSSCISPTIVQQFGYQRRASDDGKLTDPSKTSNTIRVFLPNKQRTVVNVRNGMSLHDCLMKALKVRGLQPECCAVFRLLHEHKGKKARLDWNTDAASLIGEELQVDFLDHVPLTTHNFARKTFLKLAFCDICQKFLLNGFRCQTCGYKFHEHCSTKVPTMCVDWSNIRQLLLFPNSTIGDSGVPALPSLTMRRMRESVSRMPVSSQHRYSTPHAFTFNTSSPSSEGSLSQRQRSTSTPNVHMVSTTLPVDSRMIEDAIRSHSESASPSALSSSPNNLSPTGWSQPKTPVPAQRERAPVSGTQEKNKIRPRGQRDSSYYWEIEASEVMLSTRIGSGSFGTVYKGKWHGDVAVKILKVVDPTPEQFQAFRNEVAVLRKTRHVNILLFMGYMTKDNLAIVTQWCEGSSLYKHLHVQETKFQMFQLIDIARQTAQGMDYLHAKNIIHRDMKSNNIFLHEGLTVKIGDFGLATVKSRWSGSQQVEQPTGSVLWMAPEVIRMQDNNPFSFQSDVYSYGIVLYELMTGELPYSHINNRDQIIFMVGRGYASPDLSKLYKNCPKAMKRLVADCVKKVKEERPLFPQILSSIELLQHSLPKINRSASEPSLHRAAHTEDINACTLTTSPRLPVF

In the case of CC(C)(C)c1[nH]cnc1/C=c1\[nH]c(=O)/c(=C/c2ccccc2)[nH]c1=O [KPU-2, tBu-dehydro-PLH], the IC50 ([1]; Mus musculus, P388, read-out: IC50 (nM) P-388) is reported as 31.8 ± 5 nM, the “cytotoxicity in P388 cells” value ([1]; in words) is reported as “exhibited cytotoxicity in P388 cells” and the “MGI (metastasis growth inhibition)” value [2] is reported as 41.6%. For the same compound, the “inhibition of tumor growth” value [3] was “significant inhibition of tumor growth”, the “apparent TGI” value [4] was > 58% and the IC50 (c-RAF (human)) was 8900 nM. For the same compound, the MIC (Aspergillus fumigatus; A. fumigatus isolate #2) was >16 µg/mL, the MIC (Aspergillus fumigatus; Aspergillus fumigatus) was > 16 µg/mL and the MIC (Candida albicans; C. albicans 10231) was >32 µg/mL. For the same compound, the MIC (Candida albicans; Candida albicans) was > 32 µg/mL, the “antifungal potency compared with griseofulvin” value (Trichophyton rubrum) was “equivalent in potency or in some cases more potent than griseofulvin” and the MIC (Candida glabrata) was > 32 µg/mL. The “kinases inhibited in the primary screen” value [5] was “Four kinases were inhibited by greater than 50%”, the IC50 (JNK3 (rat)) was 6800 nM and the IC50 [6] was 27.4 nM. The IC50 [7] was 39.6 nM, the “morphological changes of apoptosis” value [8] was “induced the typical morphological changes associated with early stages of apoptosis” and the “effect on estimated tumor growth” value (MCF-7 human breast tumor) was “appeared to be the most effective”. For the same compound, the “TGI of the cotherapy group” value [9] was 74.4%.
